According to the supplement of paper PMC10307832:

What was measured:
Test in all cases: relative viability (nuclei count vs DMSO), 5 days (fraction); higher = more cells survive
Midostaurin + Olaparib = compound: CO[C@@H]1[C@H](N(C)C(=O)c2ccccc2)C[C@H]2O[C@]1(C)n1c3ccccc3c3c4c(c5c6ccccc6n2c5c31)C(=O)NC4 [Midostaurin] + O=C(c1cc(Cc2n[nH]c(=O)c3ccccc23)ccc1F)N1CCN(C(=O)C2CC2)CC1 [Olaparib] (partner 8 µM)
How it was run: (§1)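 Lung cancer cell lines were seeded in 1536-well plates and dosed by pin tool the next day, with either a single drug or a fixed anchor-drug dose combined with five library-drug doses (not always all listed) spaced in √10 steps. Five days later, one step fixed the cells and stained their nuclei (final 0.05% Triton X-100, 1% formaldehyde, 1 ug/ml Hoechst), and nuclei were counted on 4× images. Relative viability is the nuclei count in treated wells divided by the count in vehicle wells, and each value is the median of duplicate plates.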

Midostaurin + Lapatinib = compound: CO[C@@H]1[C@H](N(C)C(=O)c2ccccc2)C[C@H]2O[C@]1(C)n1c3ccccc3c3c4c(c5c6ccccc6n2c5c31)C(=O)NC4 [Midostaurin] + CS(=O)(=O)CCNCc1ccc(-c2ccc3ncnc(Nc4ccc(OCc5cccc(F)c5)c(Cl)c4)c3c2)o1 [Lapatinib] (partner 2 µM)
How it was run: as §1

[1] = compound: COc1cc(-c2nn([C@H]3CC[C@H](N4CCN(C(C)=O)CC4)CC3)c3ncnc(N)c23)ccc1NC(=O)c1cc2ccccc2n1C + COc1cccc2cc(-c3nc([C@H]4CC[C@H](C(=O)O)CC4)n4ncnc(N)c34)[nH]c12 [OSI-027] (partner 0.5 µM)
How it was run: as §1

[2] = compound: COc1cc(-c2nn([C@H]3CC[C@H](N4CCN(C(C)=O)CC4)CC3)c3ncnc(N)c23)ccc1NC(=O)c1cc2ccccc2n1C + Cc1cc(Nc2cc(N3CCN(C)CC3)nc(Sc3ccc(NC(=O)C4CC4)cc3)n2)n[nH]1 [Tozasertib] (partner 0.1 µM)
How it was run: as §1

[3] = compound: COc1cc(-c2nn([C@H]3CC[C@H](N4CCN(C(C)=O)CC4)CC3)c3ncnc(N)c23)ccc1NC(=O)c1cc2ccccc2n1C + Nc1ncn([C@H]2C[C@H](O)[C@@H](CO)O2)c(=O)n1 [Decitabine] (partner 2 µM)
How it was run: as §1

| Cell Line | relative viability (Midostaurin + Olaparib; first compound 0.01 µM) | relative viability (Midostaurin + Olaparib; first compound 0.03162 µM) | relative viability (Midostaurin + Olaparib; first compound 0.1 µM) | relative viability (Midostaurin + Olaparib; first compound 0.3162 µM) | relative viability (Midostaurin + Lapatinib; first compound 0.01 µM) | relative viability (Midostaurin + Lapatinib; first compound 0.03162 µM) | relative viability (Midostaurin + Lapatinib; first compound 0.1 µM) | relative viability (Midostaurin + Lapatinib; first compound 0.3162 µM) | relative viability ([1]; first compound 0.0128 µM) | relative viability ([1]; first compound 0.04048 µM) | relative viability ([1]; first compound 0.128 µM) | relative viability ([1]; first compound 1.28 µM) | relative viability ([2]; first compound 0.0128 µM) | relative viability ([2]; first compound 0.04048 µM) | relative viability ([2]; first compound 0.128 µM) | relative viability ([2]; first compound 1.28 µM) | relative viability ([3]; first compound 0.0128 µM) | relative viability ([3]; first compound 0.04048 µM) | relative viability ([3]; first compound 0.128 µM) | relative viability ([3]; first compound 1.28 µM) |
| --- | --- | --- | --- | --- | --- | --- | --- | --- | --- | --- | --- | --- | --- | --- | --- | --- | --- | --- | --- | --- |
| NCI-H460 | 0.406 | 0.417 | 0.314 | 0.382 | 0.839 | 1.03 | 0.971 | 0.936 | 0.609 | 0.584 | 0.623 | 0.395 | 0.47 | 0.113 | 0.278 | 0.0922 | 0.495 | 0.452 | 0.451 | 0.433 |
| NCI-H520 | 0.32 | 0.318 | 0.266 | 0.249 | 0.866 | 0.942 | 0.762 | 0.781 | 0.191 | 0.252 | 0.201 | 0.174 | 0.378 | 0.432 | 0.412 | 0.31 | 0.508 | 0.502 | 0.436 | 0.368 |
| NCI-H596 | 0.77 | 0.691 | 0.722 | 0.777 | 1.21 | 1.12 | 1.13 | 1.34 | 0.681 | 0.526 | 0.641 | 0.441 | 0.972 | 1.17 | 0.872 | 0.541 | 1.33 | 1.18 | 0.89 | 0.716 |
| NCI-H647 | 0.495 | 0.688 | 0.455 | 0.316 | 0.932 | 1.12 | 0.768 | 0.646 | 0.594 | 0.656 | 0.617 | 0.435 | 0.219 | 0.262 | 0.194 | 0.141 | 0.451 | 0.424 | 0.406 | 0.364 |
| NCI-H650 | 0.36 | 0.406 | 0.412 | 0.313 | 0.838 | 0.988 | 0.582 | 0.687 | 0.56 | 0.798 | 0.524 | 0.458 | 0.663 | 0.747 | 0.735 | 0.732 | 0.319 | 0.35 | 0.304 | 0.306 |
| NCI-H661 | 0.721 | 0.7 | 0.714 | 0.717 | 0.389 | 0.449 | 0.411 | 0.384 | 0.721 | 0.722 | 0.691 | 0.575 | 0.362 | 0.381 | 0.346 | 0.34 | 0.513 | 0.532 | 0.511 | 0.509 |
| NCI-H727 | 0.659 | 0.62 | 0.628 | 0.68 | 1.02 | 0.739 | 0.91 | 0.728 | 0.591 | – | 0.477 | 0.47 | 0.65 | – | 0.581 | 0.477 | 0.925 | – | 1.01 | 0.84 |
| NCI-H838 | 0.748 | 0.839 | 0.511 | 0.229 | 0.955 | 0.92 | 0.897 | 0.452 | 0.38 | 0.375 | 0.422 | 0.359 | 0.287 | 0.289 | 0.322 | 0.209 | 0.484 | 0.505 | 0.518 | 0.432 |
